Assay [1] concerns Obese Zucker rats. The experiment in a line: In vivo assessment in obese Zucker rats: body weight and food intake. As to conditions: obese Zucker rats, daily 400 μg Cr(III)/kg, mean; for Food Intake 5 wks: at 5 weeks; for Food Intake 7 wks: at 7 weeks.
Assay [2] relates to Obese Zucker rats. The experiment in a line: In vivo assessment in obese Zucker rats: blood lipid profile (total cholesterol, triglycerides, HDL). The note with it: daily 400 μg Cr(III)/kg, 8 weeks, mean.
Assay [3] concerns Obese Zucker rats. The experiment in a line: In vivo assessment in obese Zucker rats: other vascular inflammation markers (cAMP, TNFα, IL-6, OxyDNA). As to conditions: obese Zucker rats, daily 400 μg Cr(III)/kg, 8 weeks, mean ± SE; for OxyDNA: oxidative DNA damage.
The subject of assay [4] is Obese Zucker rats. The experiment in a line: In vivo assessment in obese Zucker rats: vascular inflammation markers (MCP-1, CRP, RBP-4, leptin, ICAM, adiponectin). The note with it: obese Zucker rats, daily 400 μg Cr(III)/kg, 8 weeks, mean; for Adiponectin / CRP / ICAM / MCP-1: plasma, ELISA. A general note: In an ELISA, binding on a coated surface is turned into a signal by an enzyme label.

Assay [5] deals with Obese Zucker rats. In words: In vivo assessment in obese Zucker rats: key biological parameters (fasting glucose, HbA1c, vitamin C, GSH, RBC lipid peroxidation). As to conditions: obese Zucker rats, daily 400 μg Cr(III)/kg, 8 weeks, mean; for RBC Lipid Peroxidase: malondialdehyde by thiobarbituric acid; for Fasting Glucose: fasted overnight; for Vitamin C: plasma.

For “Chromium Dinicotinate Tryptophanate [Cr(nic)2Trp]”, in the assay with Obese Zucker rats [1], the “Food Intake 5 wks” value worked out at 40.49 g/day and the “Food Intake 7 wks” value was 40.78 g/day. In the assay on Obese Zucker rats [2], the HDL is reported as 69.43 mg/dL, the “Total Chol/HDL” value was 2.86 ratio, the “Total Cholesterol” value worked out at 183.17 mg/dL and the Triglyceride is reported as 470.67 mg/dL. Further, in the assay on Obese Zucker rats [3], the IL-6 was determined as 92.09 ± 1.89 pg/mL, the cAMP is 30.36 ± 1.48 pmol/mL and the OxyDNA was found to be 39.35 ± 3.48 ng/mL. Besides, in the assay with Obese Zucker rats [4], the Leptin turned out to be 363.21 pg/mL, the RBP-4 is reported as 60017.14 ng/mL, the Adiponectin is on record as 11752.86 ng/mL and the CRP is given as 617.66 ng/mL. Moreover, in the assay with Obese Zucker rats [4], the ICAM turned out to be 17950.97 pg/mL and the MCP-1 turned out to be 2607.07 pg/mL. Besides, in the assay on Obese Zucker rats [5], the “RBC Lipid Peroxidase” value worked out at 1.96 nmol/mL, the “Fasting Glucose” value turned out to be 513.43 mg/dL, the GSH came out at 5.35 µmol/g and the HbA1c was 15.55%. The “Vitamin C” value in the assay with Obese Zucker rats [5] stood at 0.13 mg %.
In the case of “Chromium Dinicotinate Glycinate [Cr(nic)2Gly, reference compound]”, in the assay on Obese Zucker rats [1], the “Food Intake 5 wks” value turned out to be 34.29 g/day and the “Food Intake 7 wks” value was 37.14 g/day. In addition, in the assay on Obese Zucker rats [2], the HDL came to 64.57 mg/dL, the “Total Chol/HDL” value worked out at 3.00 ratio, the “Total Cholesterol” value worked out at 193.14 mg/dL and the Triglyceride is recorded as 610.33 mg/dL. In the assay with Obese Zucker rats [3], the IL-6 stood at 91.96 ± 3.83 pg/mL, the cAMP was 31.40 ± 1.57 pmol/mL and the OxyDNA came to 45.62 ± 1.86 ng/mL. In the assay on Obese Zucker rats [4], this substance displayed a Leptin of 461.16 pg/mL, an RBP-4 of 54900.00 ng/mL, an Adiponectin of 12552.86 ng/mL and a CRP of 535.98 ng/mL. In the assay on Obese Zucker rats [4], this substance yielded an ICAM of 16691.40 pg/mL and an MCP-1 of 2897.61 pg/mL. Moreover, in the assay with Obese Zucker rats [5], the “RBC Lipid Peroxidase” value came out at 2.11 nmol/mL, the “Fasting Glucose” value is reported as 448.29 mg/dL, the GSH came out at 4.86 µmol/g and the HbA1c came out at 14.45%. Besides, the “Vitamin C” value in the assay on Obese Zucker rats [5] is given as 0.15 mg %.
As for “Chromium Dinicotinate Argininate [Cr(nic)2Arg]”, in the assay with Obese Zucker rats [1], the “Food Intake 5 wks” value is given as 40.22 g/day and the “Food Intake 7 wks” value is 45.28 g/day. Further, in the assay with Obese Zucker rats [2], the HDL was found to be 69.78 mg/dL, the “Total Chol/HDL” value came out at 3.00 ratio, the “Total Cholesterol” value came out at 186.16 mg/dL and the Triglyceride came to 554.65 mg/dL. In the assay with Obese Zucker rats [3], this substance showed an IL-6 of 92.35 ± 2.79 pg/mL, a TNFα of 17.84 ± 1.26 pg/mL, a cAMP of 38.96 ± 3.88 pmol/mL and an OxyDNA of 58.26 ± 2.57 ng/mL. In the assay on Obese Zucker rats [4], this substance returned a Leptin of 335.80 pg/mL, an RBP-4 of 52537.50 ng/mL, an Adiponectin of 9279.38 ng/mL and a CRP of 628.49 ng/mL. In the assay with Obese Zucker rats [4], this substance had an ICAM of 18591.76 pg/mL and an MCP-1 of 3235.62 pg/mL. In the assay on Obese Zucker rats [5], the “RBC Lipid Peroxidase” value was 2.47 nmol/mL, the “Fasting Glucose” value came to 628.87 mg/dL, the GSH turned out to be 4.89 µmol/g and the HbA1c is 16.56%. For the same substance, in the assay with Obese Zucker rats [5], the “Vitamin C” value stood at 0.14 mg %.
“Chromium Dinicotinate Aspartate [Cr(nic)2Asp]”: in the assay with Obese Zucker rats [1], the “Food Intake 5 wks” value is reported as 38.90 g/day and the “Food Intake 7 wks” value is 40.00 g/day. Further, in the assay on Obese Zucker rats [2], the HDL was 70.17 mg/dL, the “Total Chol/HDL” value was 2.88 ratio, the “Total Cholesterol” value is 202.17 mg/dL and the Triglyceride is 699.67 mg/dL. Moreover, in the assay with Obese Zucker rats [3], the IL-6 is recorded as 88.91 ± 2.25 pg/mL, the cAMP is on record as 27.95 ± 1.22 pmol/mL and the OxyDNA amounted to 41.92 ± 1.46 ng/mL. In the assay with Obese Zucker rats [4], this substance showed a Leptin of 406.15 pg/mL, an RBP-4 of 57870.00 ng/mL, an Adiponectin of 12078.33 ng/mL and a CRP of 602.51 ng/mL. Also, in the assay on Obese Zucker rats [4], the ICAM turned out to be 17985.91 pg/mL and the MCP-1 is on record as 1431.68 pg/mL. For the same substance, in the assay on Obese Zucker rats [5], the “RBC Lipid Peroxidase” value was 2.02 nmol/mL, the “Fasting Glucose” value came to 496.33 mg/dL, the GSH was 5.15 µmol/g and the HbA1c amounted to 15.62%. Moreover, the “Vitamin C” value with Obese Zucker rats [5] is 0.12 mg %.
As for “Chromium Dinicotinate Phenylalanine [Cr(nic)2Phe]”, in the assay with Obese Zucker rats [1], the “Food Intake 5 wks” value is 38.16 g/day and the “Food Intake 7 wks” value amounted to 39.22 g/day. Also, in the assay with Obese Zucker rats [2], the HDL was found to be 70.43 mg/dL, the “Total Chol/HDL” value is 2.87 ratio, the “Total Cholesterol” value stood at 201.71 mg/dL and the Triglyceride was determined as 583.00 mg/dL. In the assay on Obese Zucker rats [3], this substance returned an IL-6 of 84.82 ± 1.60 pg/mL, a cAMP of 31.60 ± 1.22 pmol/mL and an OxyDNA of 40.63 ± 3.74 ng/mL. Further, in the assay with Obese Zucker rats [4], the Leptin is given as 351.16 pg/mL, the RBP-4 was 53891.43 ng/mL, the Adiponectin was 12712.86 ng/mL and the CRP was determined as 633.55 ng/mL. In addition, in the assay on Obese Zucker rats [4], the ICAM stood at 17480.50 pg/mL and the MCP-1 was found to be 1755.25 pg/mL. In the assay on Obese Zucker rats [5], the “RBC Lipid Peroxidase” value turned out to be 1.97 nmol/mL, the “Fasting Glucose” value was 510.43 mg/dL, the GSH was 5.05 µmol/g and the HbA1c was found to be 15.95%. The “Vitamin C” value with Obese Zucker rats [5] amounted to 0.15 mg %.

Source of the values: patent publication US9700546B2, “Trivalent chromium compounds, compositions and methods of use” (INTERHEALTH NUTRACEUTICALS, INC., priority 2006, dated 2017).
